Test results published in publication PMC10092844, “Inhibition profile of trifludimoxazin towards PPO2 target site mutations” (Pest Management Science, 2022).
Numbering of substitutions follows the chain as printed. Like-named read-outs stand apart in the source and are kept apart here.

Experiments:
PPO2 ΔG210 = target: T1, PPO2 ΔG210 (Amaranthus tuberculatus, UniProt Q0NZW9, DEL210-210); type: biochemical
T1 sequence (Q0NZW9 with tags, fused parts or gaps DEL210-210): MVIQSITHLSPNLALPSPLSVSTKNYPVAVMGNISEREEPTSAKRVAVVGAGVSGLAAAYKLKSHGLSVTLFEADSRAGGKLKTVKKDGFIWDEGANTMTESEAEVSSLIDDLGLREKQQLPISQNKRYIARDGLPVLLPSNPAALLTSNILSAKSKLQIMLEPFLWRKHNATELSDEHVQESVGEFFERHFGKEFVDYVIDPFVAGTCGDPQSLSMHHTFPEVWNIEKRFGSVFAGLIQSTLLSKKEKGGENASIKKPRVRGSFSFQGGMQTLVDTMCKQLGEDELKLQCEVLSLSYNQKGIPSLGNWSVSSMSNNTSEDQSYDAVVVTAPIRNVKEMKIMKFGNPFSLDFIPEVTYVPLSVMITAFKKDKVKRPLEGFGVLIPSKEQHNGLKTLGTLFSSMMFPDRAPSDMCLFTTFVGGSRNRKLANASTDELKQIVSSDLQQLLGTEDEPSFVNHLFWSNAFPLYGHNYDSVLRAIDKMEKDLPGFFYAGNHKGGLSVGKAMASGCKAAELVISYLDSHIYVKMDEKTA

[1] = target: R128(X) ΔG210 double-mutant enzymes; type: biochemical, Amaranthus tuberculatus
[2] = target: T2, PPO2 R128E ΔG210 in Escherichia coli hemG (Amaranthus tuberculatus, UniProt Q0NZW9, DEL210/R128E, cells depend on it); type: cell-based; conditions: read-out: IC50 (E. coli hemG growth)
T2 sequence (Q0NZW9 with tags, fused parts or gaps R128E/DEL210): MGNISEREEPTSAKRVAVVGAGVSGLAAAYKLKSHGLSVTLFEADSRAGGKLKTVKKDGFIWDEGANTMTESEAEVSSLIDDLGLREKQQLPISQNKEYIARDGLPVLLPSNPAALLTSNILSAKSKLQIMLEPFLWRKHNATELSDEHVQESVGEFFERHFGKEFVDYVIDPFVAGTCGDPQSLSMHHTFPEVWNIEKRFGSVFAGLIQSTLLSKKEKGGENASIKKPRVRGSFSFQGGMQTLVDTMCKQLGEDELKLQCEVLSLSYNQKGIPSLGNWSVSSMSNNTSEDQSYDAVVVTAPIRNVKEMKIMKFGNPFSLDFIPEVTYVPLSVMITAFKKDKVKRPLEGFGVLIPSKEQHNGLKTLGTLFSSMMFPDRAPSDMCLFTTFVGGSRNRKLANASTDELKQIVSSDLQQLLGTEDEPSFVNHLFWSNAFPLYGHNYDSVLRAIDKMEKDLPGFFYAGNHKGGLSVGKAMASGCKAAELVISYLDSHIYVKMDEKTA

[3] = target: T3, PPO2 R128N ΔG210 in Escherichia coli hemG (Amaranthus tuberculatus, UniProt Q0NZW9, DEL210-210/R128N, cells depend on it); type: cell-based; conditions: read-out: IC50 (E. coli hemG growth)
T3 sequence (Q0NZW9 with tags, fused parts or gaps R128N/DEL210-210): T2 sequence (Q0NZW9 with tags, fused parts or gaps R128E/DEL210) with E98N

[4] = target: T4, PPO2 R128Q ΔG210 in Escherichia coli hemG (Amaranthus tuberculatus, UniProt Q0NZW9, DEL210-210/R128Q, cells depend on it); type: cell-based; conditions: read-out: IC50 (E. coli hemG growth)
T4 sequence (Q0NZW9 with tags, fused parts or gaps R128Q/DEL210-210): T1 sequence (Q0NZW9 with tags, fused parts or gaps DEL210-210) with R128Q

[5] = target: T5, PPO2 R128M ΔG210 in Escherichia coli hemG (Amaranthus tuberculatus, UniProt Q0NZW9, DEL210-210/R128M, cells depend on it); type: cell-based; conditions: read-out: IC50 (E. coli hemG growth)
T5 sequence (Q0NZW9 with tags, fused parts or gaps R128M/DEL210-210): T2 sequence (Q0NZW9 with tags, fused parts or gaps R128E/DEL210) with E98M

[6] = read-out: IC50 (over R128(X) ΔG210 mutants)

Row | Compound | IC50 (PPO2 ΔG210) [nM] | IC50 [1, 6] [nM] | IC50 [2] [nM] | IC50 [3] [nM] | IC50 [4] [nM] | IC50 [5] [nM] | IC50 ([1]; read-out: IC50 values) [nM] | IC50 ([1]; read-out: IC50 values (range over variants)) [nM] | Resistance factor (PPO2 ΔG210)
1 | CS(=O)(=O)NC(=O)c1cc(Oc2ccc(C(F)(F)F)cc2Cl)ccc1[N+](=O)[O-] [Fomesafen, fomesafen] | > 10000 | < 10000 | – | – | – | – | – | – | –
2 | CCOC(=O)C(C)OC(=O)c1cc(Oc2ccc(C(F)(F)F)cc2Cl)ccc1[N+](=O)[O-] (stereo not shown) [Lactofen, lactofen] | 544 | – | 2890 | > 10000 | > 10000 | > 10000 | > 10000 | 100 to 1000 | –
3 | CC(C)N(C)S(=O)(=O)NC(=O)c1cc(-n2c(=O)cc(C(F)(F)F)n(C)c2=O)c(F)cc1Cl [Saflufenacil, saflufenacil] | 2040 | < 10000 | > 10000 | > 10000 | > 10000 | > 10000 | – | – | –
4 | C#CCN1C(=O)C(F)(F)Oc2cc(F)c(-n3c(=O)n(C)c(=S)n(C)c3=O)cc21 [Trifludimoxazin, trifludimoxazin] | 1.83 | 1 to 100 | 9.87 | 9.87 | 9.86 | 67.4 | – | – | 7
